Patent US20250186541A1, “DLL3 TARGETING PEPTIDES AND CONSTRUCTS THEREOF” (MARIANA ONCOLOGY INC., priority 2023, published 2025)
Numbered stars: 1 amine (or outer) side, 2 acyl side, 3 side chain; on linkers, the order of the positions; unused ones are H or OH. Bridge positions count the residues as written; N and C are the ends. Square brackets hold non-standard residues; d marks the D form. Peptide text beside a SMILES is read from it. * marks the point of attachment. Ala(piperidin-4-yl) = O=C([C@H](CC1CCN([*:3])CC1)N[*:1])[*:2]; DOTA = O=C(O)CN1CCN(CC(=O)O)CCN(CC(=O)*)CCN(CC(=O)O)CC1; Phe(4-CH2NH2) = NCc1ccc(C[C@H](N)C(=O)O)cc1; 1Nal = N[C@@H](Cc1cccc2ccccc12)C(=O)O; 2Nal = N[C@@H](Cc1ccc2ccccc2c1)C(=O)O; NMetBuAla = CN[C@@H](CC(C)(C)C)C(=O)O; tBuAla = CC(C)(C)C[C@H](N)C(=O)O; AllylGly = C=CC[C@H](N)C(=O)O; Chg = N[C@H](C(=O)O)C1CCCCC1; αMeP = C[C@@]1(C(=O)O)CCCN1

Biological target: T1, human DLL3 (Homo sapiens, UniProt Q9NYJ7)
T1 construct: biotin (biotinylated)
T1 sequence (Q9NYJ7 27-618): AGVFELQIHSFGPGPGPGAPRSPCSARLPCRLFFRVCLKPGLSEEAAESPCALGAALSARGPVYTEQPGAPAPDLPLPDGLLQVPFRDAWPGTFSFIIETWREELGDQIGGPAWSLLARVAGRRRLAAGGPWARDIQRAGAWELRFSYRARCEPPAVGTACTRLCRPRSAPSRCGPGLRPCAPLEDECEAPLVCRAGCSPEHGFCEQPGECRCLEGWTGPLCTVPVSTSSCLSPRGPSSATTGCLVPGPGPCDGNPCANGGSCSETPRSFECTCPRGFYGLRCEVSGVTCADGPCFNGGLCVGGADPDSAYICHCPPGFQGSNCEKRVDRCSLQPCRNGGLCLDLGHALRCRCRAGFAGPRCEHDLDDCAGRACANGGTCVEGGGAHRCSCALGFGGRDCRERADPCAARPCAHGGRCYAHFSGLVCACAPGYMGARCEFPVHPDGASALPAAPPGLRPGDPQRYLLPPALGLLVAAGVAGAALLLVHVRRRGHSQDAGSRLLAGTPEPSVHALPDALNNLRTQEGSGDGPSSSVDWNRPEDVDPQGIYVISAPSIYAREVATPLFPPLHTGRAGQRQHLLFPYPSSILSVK
Assay: Affinity determination by Surface Plasmon Resonance (SPR), Biacore, 1:1 binding model
Settings: biotinylated human DLL3 on streptavidin chip, 25° C.; NB = nonbinding
Procedure: Example 3. Binding Affinity of Targeting Moieties Polypeptides to DLL3 Affinity Determination by Surface Plasmon Resonance (SPR)
SPR studies were performed on the compounds disclosed herein using the following protocol. […] Biotinylated target ligand human DLL3 was immobilized on a streptavidin sensor chip. A reference surface was set up for nonspecific binding and refractive index changes. For analysis of the kinetics of interactions, varying concentrations of samples were injected at a flow rate of 100 μL/min using running buffer containing 20 mM phosphate buffer with 2.7 mM KCl, 137 mM NaCl, 0.05% Surfactant P20 and 2% DMSO. Sensorgram curves were fitted with 1:1 binding model, and affinity and kinetic parameters were obtained using Biacore Insight evaluation 4.0. software.

Row | Kd [nM] | Structure (SMILES)
1 | > 30 | CC(=O)N[C@@H](CC1CCNCC1)C(=O)N[C@@H](CO)C(=O)N[C@@H](CC(=O)O)C(=O)N[C@H]1CC=CC[C@@H](C(=O)N2CCC[C@@]2(C)C(=O)N[C@@H](Cc2ccccc2)C(=O)N[C@@H](CC(=O)O)C(N)=O)NC(=O)[C@H](CC(N)=O)NC(=O)[C@H](Cc2ccc3ccccc3c2)NC(=O)[C@H](Cc2ccc(CNC(=O)CN3CCN(CC(=O)O)CCN(CC(=O)O)CCN(CC(=O)O)CC3)cc2)NC(=O)[C@H](CC(C)(C)C)N(C)C(=O)[C@H](Cc2cccc3ccccc23)NC1=O [compound 187, Ac-[3-(4-piperidinyl)-Ala]-S-D-AllyG(4)-(1Nal)-(NMe-Tba)-[PAF(DOTA)]-(2Nal)-N-AllyG(4)-(aMe-P)-F -D-CONH2] (Ac-[Ala(piperidin-4-yl)]SD[AllylGly][1Nal][NMetBuAla][Phe(4-CH2NH2)](DOTA)[2Nal]N[AllylGly][αMeP]FD-NH2; staple 4-10 (inferred))
2 | 0.037 | CC(=O)N[C@H](C)C(=O)N[C@@H](CO)C(=O)N[C@@H](CC(=O)O)C(=O)N[C@H]1CSSC[C@@H](C(=O)N2CCC[C@@]2(C)C(=O)N[C@@H](Cc2ccccc2)C(=O)N[C@@H](CC(=O)O)C(=O)N[C@H](CCCCNC(=O)CN2CCN(CC(=O)O)CCN(CC(=O)O)CCN(CC(=O)O)CC2)C(N)=O)NC(=O)[C@H](CC(N)=O)NC(=O)[C@H](Cc2ccc3ccccc3c2)NC(=O)[C@H](CCC(N)=O)NC(=O)[C@H](CC(C)(C)C)NC(=O)[C@H](Cc2cccc3ccccc23)NC1=O [compound 172, Ac-(D-Ala)-S-D-C(3)-(1Nal)-(t-Bu-Ala)-Q-(2Nal)-N-C(3)-(aMe-P)-F -D-[D-Lys(DOTA)]-NH2] (Ac-[dA]SDC[1Nal][tBuAla]Q[2Nal]NC[αMeP]FD[dK](DOTA)-NH2; disulfide 4-10)
3 | 0.13 | CNC(=O)[C@@H](CCCCNC(=O)CN1CCN(CC(=O)O)CCN(CC(=O)O)CCN(CC(=O)O)CC1)NC(=O)[C@H](CC(=O)O)NC(=O)[C@H](Cc1ccccc1)NC(=O)[C@]1(C)CCCN1C(=O)[C@@H]1CSSC[C@H](NC(=O)[C@H](CC(=O)O)NC(=O)[C@H](CO)NC(=O)[C@@H](C)NC(C)=O)C(=O)N[C@@H](Cc2cccc3ccccc23)C(=O)N[C@@H](CC(C)(C)C)C(=O)N[C@@H](CCC(N)=O)C(=O)N[C@@H](Cc2ccc3ccccc3c2)C(=O)N[C@@H](CC(N)=O)C(=O)N1 [Cpd #147, Ac-(D-Ala)-S-D-C(3)-(1Nal)-(t-Bu-Ala)-Q-(2Nal)-N-C(3)-(aMe-P)-F -D-[D-Lys(DOTA)]-CONHMe] (Ac-[dA]SDC[1Nal][tBuAla]Q[2Nal]NC[αMeP]FD[dK](DOTA)-NHMe; disulfide 4-10)
4 | 0.082 | CC(=O)N[C@H](C)C(=O)N[C@@H](CO)C(=O)N[C@@](C)(CC(=O)O)C(=O)N[C@H]1CCCC[C@@H](C(=O)N2CCC[C@@]2(C)C(=O)N[C@@H](Cc2ccccc2)C(=O)N[C@@H](CC(=O)O)C(N)=O)NC(=O)[C@H](CC(N)=O)NC(=O)[C@H](Cc2ccc3ccccc3c2)NC(=O)[C@H](Cc2ccc(CNC(=O)CN3CCN(CC(=O)O)CCN(CC(=O)O)CCN(CC(=O)O)CC3)cc2)NC(=O)[C@H](CC(C)(C)C)NC(=O)[C@H](Cc2cccc3ccccc23)NC1=O [Cpd #205, Ac-(D-Ala)-S-(aMe-Asp)-AllyG(4)*-(1Nal)-(t-Bu-Ala)-[PAF(DOTA)]-(2Nal)-N-AllyG(4)*-(aMe-P)-F-D-CONH2]
5 | > 100 | CC(=O)N[C@H](C(=O)N[C@@H](CO)C(=O)N[C@@H](CC(=O)O)C(=O)N[C@H]1CSSC[C@@H](C(=O)N2CCC[C@H]2C(=O)N[C@@H](Cc2ccccc2)C(=O)N[C@@H](CC(=O)O)C(N)=O)NC(=O)[C@H](CC(N)=O)NC(=O)[C@H](CCCCNC(=O)CN2CCN(CC(=O)O)CCN(CC(=O)O)CCN(CC(=O)O)CC2)NC(=O)[C@H](CCC(N)=O)NC(=O)[C@H](CC(C)C)NC(=O)[C@H](Cc2c[nH]c3ccccc23)NC1=O)C1CCCCC1 [compound 99, Ac-(Chg)-S-D-C(3)-W-L-Q-[L-Lys(DOTA)]-N-C(3)-P-F-D-CONH2] (Ac-[Chg]SDCWLQK(DOTA)NCPFD-NH2; disulfide 4-10)
